Data taken from patent publication US20220340633A1 (Adepthera LLC, priority 2016, published 2022).
Like-named read-outs stand apart in the source and are kept apart here. Positions of bridges follow the written chain, without caps; N, C: chain ends. Non-standard residues stand in square brackets, D forms with d. Residues, ends and D or L forms follow the SMILES beside them. *: point of attachment. Palmitoyl = CCCCCCCCCCCCCCCC(=O)*; AEEA = NCCOCCOCC(=O)O

How the values were obtained:
CLR/RAMP1 receptor = CLR/RAMP1 receptor (Homo sapiens, UniProt O60894+Q16602); test: CLR/RAMP1 cAMP receptor activation assay (agonist); assay type: cell-based; set-up: host or cells: 1321N1 cells; settings: % of positive control (β-CGRP)
CLR/RAMP1 receptor, sequence (Q16602 23-461): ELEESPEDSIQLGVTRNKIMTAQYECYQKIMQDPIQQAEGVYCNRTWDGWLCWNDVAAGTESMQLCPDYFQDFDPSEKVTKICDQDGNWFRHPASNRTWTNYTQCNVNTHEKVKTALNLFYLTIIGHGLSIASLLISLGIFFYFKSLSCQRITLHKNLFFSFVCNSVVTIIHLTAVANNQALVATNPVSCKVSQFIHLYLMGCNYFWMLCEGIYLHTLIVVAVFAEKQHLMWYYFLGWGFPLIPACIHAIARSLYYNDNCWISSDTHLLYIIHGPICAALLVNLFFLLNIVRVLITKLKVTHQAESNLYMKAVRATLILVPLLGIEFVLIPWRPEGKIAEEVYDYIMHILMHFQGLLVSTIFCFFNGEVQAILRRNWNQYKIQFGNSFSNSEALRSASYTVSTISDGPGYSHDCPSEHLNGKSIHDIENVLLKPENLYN
CLR/RAMP1 receptor, sequence (O60894 27-148): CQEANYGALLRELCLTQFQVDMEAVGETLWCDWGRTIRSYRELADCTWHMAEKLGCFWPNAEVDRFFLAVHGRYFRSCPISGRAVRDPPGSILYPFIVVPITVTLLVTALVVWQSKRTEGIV

CLR/RAMP2 receptor = target: T1, CLR/RAMP2 receptor (Homo sapiens, UniProt O60895+Q16602); test: CLR/RAMP2 arrestin receptor activation assay (agonist); assay type: cell-based; settings: CHO-K1, read-out: CLR/RAMP 2 Max Activity % of positive control, CHO-K1 cells; % of positive control (ADM)
T1 construct: host or cells: CHO-K1 cells
T1 sequence (Q16602 23-461): as the sequence (Q16602 23-461) above
T1 sequence (O60895 43-175): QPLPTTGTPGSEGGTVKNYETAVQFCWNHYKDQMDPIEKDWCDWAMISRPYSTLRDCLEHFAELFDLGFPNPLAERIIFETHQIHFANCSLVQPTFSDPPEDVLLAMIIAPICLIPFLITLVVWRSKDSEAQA

[1] = 1321-N1, read-out: CLR/RAMP 1 Max Activity % of positive control, 1321N1 cells

Row | Structure (SMILES) | Emax (CLR/RAMP1 receptor; 1321-N1, 1321N1 cells, read-out: CLR/RAMP 1 Max Activity % of positive control) [%] | Emax (CLR/RAMP1 receptor; [1]) [%] | Emax (CLR/RAMP2 receptor) [%]
1 | CSCC[C@H](NC(=O)CNC(=O)CNC(=O)[C@H](CO)NC(=O)[C@H](CCCNC(=N)N)NC(=O)[C@H](CO)NC(=O)[C@H](CC(C)C)NC(=O)[C@H](CC(C)C)NC(=O)CNC(=O)[C@H](C)NC(=O)[C@H](CC(C)C)NC(=O)[C@H](CCCNC(=N)N)NC(=O)[C@H](Cc1c[nH]cn1)NC(=O)[C@@H](NC(=O)[C@@H](NC(=O)[C@@H]1CSSC[C@H](NC(=O)[C@H](C)N)C(=O)N[C@@H](CC(N)=O)C(=O)N[C@@H]([C@@H](C)O)C(=O)N[C@@H](C)C(=O)N[C@@H]([C@@H](C)O)C(=O)N1)C(C)C)[C@@H](C)O)C(=O)N[C@H](C(=O)N[C@@H](CCCCN)C(=O)N[C@@H](CO)C(=O)N[C@@H](CC(N)=O)C(=O)N[C@@H](Cc1ccccc1)C(=O)N[C@H](C(=O)N1CCC[C@H]1C(=O)N[C@H](C(=O)N[C@@H](CC(N)=O)C(=O)N[C@H](C(=O)NCC(=O)N[C@@H](CO)C(=O)N[C@@H](CCCCN)C(=O)N[C@@H](C)C(=O)N[C@@H](Cc1ccccc1)C(N)=O)C(C)C)[C@@H](C)O)C(C)C)C(C)C [Wild type CGRP-β positive, reference compound] | 100 |  | 
2 | CCCCCCCCCCCCCCCC(=O)NCCCC[C@H](NC(=O)COCCOCCN)C(=O)NCC(=O)N[C@H]1CSSC[C@@H](C(=O)N[C@H](C(=O)N[C@H](C(=O)N[C@@H](CCC(N)=O)C(=O)N[C@@H](CCCCN)C(=O)N[C@@H](CC(C)C)C(=O)N[C@@H](C)C(=O)N[C@@H](Cc2c[nH]cn2)C(=O)N[C@@H](CCC(N)=O)C(=O)N[C@H](C(=O)N[C@@H](Cc2ccc(O)cc2)C(=O)N[C@@H](CCC(N)=O)C(=O)N[C@@H](Cc2ccccc2)C(=O)N[C@H](C(=O)N[C@@H](CC(=O)O)C(=O)N[C@@H](CCCCN)C(=O)N[C@@H](CC(=O)O)C(=O)N[C@@H](CCCCN)C(=O)N[C@@H](CC(=O)O)C(=O)N[C@@H](CC(N)=O)C(=O)N[C@H](C(=O)N[C@@H](C)C(=O)N2CCC[C@H]2C(=O)N[C@@H](CCCNC(=N)N)C(=O)N[C@@H](CO)C(=O)N[C@@H](CCCCN)C(=O)N[C@@H](CO)C(=O)N[C@@H](CO)C(=O)N2CCC[C@H]2C(=O)N[C@@H](Cc2c[nH]cn2)C(=O)N[C@@H](CO)C(=O)N[C@@H](Cc2ccc(O)cc2)C(N)=O)C(C)C)[C@@H](C)O)[C@@H](C)CC)C(C)C)[C@@H](C)O)NC(=O)[C@H]([C@@H](C)O)NC(=O)CNC(=O)[C@H](Cc2ccccc2)NC(=O)[C@H](CCCNC(=N)N)NC1=O [SEQ ID NO: 61] |  | 70 | 92
3 | CCCCCCCCCCCCCCCC(=O)NCCCC[C@H](NC(=O)COCCOCCN)C(=O)NCC(=O)N[C@H]1CSSC[C@@H](C(=O)N[C@H](C(=O)N[C@H](C(=O)N[C@@H](CCC(N)=O)C(=O)N[C@@H](CCCCN)C(=O)N[C@@H](CC(C)C)C(=O)N[C@@H](C)C(=O)N[C@@H](Cc2c[nH]cn2)C(=O)N[C@@H](CCC(N)=O)C(=O)N[C@H](C(=O)N[C@@H](Cc2ccc(O)cc2)C(=O)N[C@@H](CCC(N)=O)C(=O)N[C@@H](Cc2ccccc2)C(=O)N[C@H](C(=O)N[C@@H](CC(=O)O)C(=O)N[C@@H](CCCCN)C(=O)N[C@@H](CC(=O)O)C(=O)N[C@@H](CCCCN)C(=O)N[C@@H](CCC(N)=O)C(=O)N[C@@H](CC(=O)O)C(=O)N[C@@H](CO)C(=O)N[C@@H](C)C(=O)N2CCC[C@H]2C(=O)N[C@H](C(=O)N[C@@H](CC(=O)O)C(=O)N2CCC[C@H]2C(=O)N[C@@H](CO)C(=O)N[C@@H](CO)C(=O)N2CCC[C@H]2C(=O)N[C@@H](Cc2c[nH]cn2)C(=O)N[C@@H](CO)C(=O)N[C@@H](Cc2ccc(O)cc2)C(N)=O)C(C)C)[C@@H](C)O)[C@@H](C)CC)C(C)C)[C@@H](C)O)NC(=O)[C@H]([C@@H](C)O)NC(=O)CNC(=O)[C@H](Cc2ccccc2)NC(=O)[C@H](CCCNC(=N)N)NC1=O [SEQ ID NO: 51] (H-[AEEA]K(Palmitoyl)GCRFGTCTVQKLAHQIYQFTDKDKQDSAPVDPSSPHSY-NH2; disulfide 4-9) |  | 65 | 107
4 | CCCCCCCCCCCCCCCC(=O)NCCCC[C@H](NC(=O)COCCOCCN)C(=O)NCC(=O)N[C@H]1CSSC[C@@H](C(=O)N[C@H](C(=O)N[C@H](C(=O)N[C@@H](CCC(N)=O)C(=O)N[C@@H](CCCCN)C(=O)N[C@@H](CC(C)C)C(=O)N[C@@H](C)C(=O)N[C@@H](Cc2c[nH]cn2)C(=O)N[C@@H](CCC(N)=O)C(=O)N[C@H](C(=O)N[C@@H](Cc2ccc(O)cc2)C(=O)N[C@@H](CCC(N)=O)C(=O)N[C@@H](Cc2ccccc2)C(=O)N[C@H](C(=O)N[C@@H](CC(=O)O)C(=O)N[C@@H](CCCCN)C(=O)N[C@@H](CC(=O)O)C(=O)N[C@@H](CCCCN)C(=O)N[C@@H](CC(=O)O)C(=O)N[C@@H](CO)C(=O)N[C@@H](C)C(=O)N2CCC[C@H]2C(=O)N[C@H](C(=O)N[C@@H](CC(=O)O)C(=O)N2CCC[C@H]2C(=O)N[C@@H](CO)C(=O)N[C@@H](CO)C(=O)N2CCC[C@H]2C(=O)N[C@@H](Cc2c[nH]cn2)C(=O)N[C@@H](CO)C(=O)N[C@@H](Cc2ccc(O)cc2)C(N)=O)C(C)C)[C@@H](C)O)[C@@H](C)CC)C(C)C)[C@@H](C)O)NC(=O)[C@H]([C@@H](C)O)NC(=O)CNC(=O)[C@H](Cc2ccccc2)NC(=O)[C@H](CCCNC(=N)N)NC1=O [SEQ ID NO: 46] (H-[AEEA]K(Palmitoyl)GCRFGTCTVQKLAHQIYQFTDKDKDSAPVDPSSPHSY-NH2; disulfide 4-9) |  | 60 | 104
5 | CCCCCCCCCCCCCCCC(=O)NCCCC[C@H](NC(=O)COCCOCCN)C(=O)NCC(=O)N[C@H]1CSSC[C@@H](C(=O)N[C@H](C(=O)N[C@H](C(=O)N[C@@H](CCC(N)=O)C(=O)N[C@@H](CCCCN)C(=O)N[C@@H](CC(C)C)C(=O)N[C@@H](C)C(=O)N[C@@H](Cc2c[nH]cn2)C(=O)N[C@@H](CCC(N)=O)C(=O)N[C@H](C(=O)N[C@@H](Cc2ccc(O)cc2)C(=O)N[C@@H](CCC(N)=O)C(=O)N[C@@H](Cc2ccccc2)C(=O)N[C@H](C(=O)N[C@@H](CC(=O)O)C(=O)N[C@@H](CCCCN)C(=O)NCC(=O)N[C@@H](CCCNC(=N)N)C(=O)N[C@@H](CCC(N)=O)C(=O)N[C@@H](CC(=O)O)C(=O)N[C@@H](CO)C(=O)N[C@@H](C)C(=O)N2CCC[C@H]2C(=O)N[C@H](C(=O)N[C@@H](CC(=O)O)C(=O)N2CCC[C@H]2C(=O)N[C@@H](CO)C(=O)N[C@@H](CO)C(=O)N2CCC[C@H]2C(=O)N[C@@H](Cc2c[nH]cn2)C(=O)N[C@@H](CO)C(=O)N[C@@H](Cc2ccc(O)cc2)C(N)=O)C(C)C)[C@@H](C)O)[C@@H](C)CC)C(C)C)[C@@H](C)O)NC(=O)[C@H]([C@@H](C)O)NC(=O)CNC(=O)[C@H](Cc2ccccc2)NC(=O)[C@H](CCCNC(=N)N)NC1=O [SEQ ID NO: 68] |  |  | 70
6 | CCCCCCCCCCCCCCCC(=O)NCCCC[C@H](NC(=O)COCCOCCN)C(=O)NCC(=O)N[C@H]1CSSC[C@@H](C(=O)N[C@H](C(=O)N[C@H](C(=O)N[C@@H](CCC(N)=O)C(=O)N[C@@H](CCCCN)C(=O)N[C@@H](CC(C)C)C(=O)N[C@@H](C)C(=O)N[C@@H](Cc2c[nH]cn2)C(=O)N[C@@H](CCC(N)=O)C(=O)N[C@H](C(=O)N[C@@H](Cc2ccc(O)cc2)C(=O)N[C@@H](CCC(N)=O)C(=O)N[C@@H](Cc2ccccc2)C(=O)N[C@H](C(=O)N[C@@H](CC(=O)O)C(=O)N[C@@H](CCCCN)C(=O)N[C@@H](CC(=O)O)C(=O)N[C@@H](CCCCN)C(=O)N[C@@H](CC(=O)O)C(=O)N[C@@H](CC(N)=O)C(=O)N[C@H](C(=O)N[C@@H](C)C(=O)N2CCC[C@H]2C(=O)N[C@H](C(=O)N[C@@H](CC(=O)O)C(=O)N2CCC[C@H]2C(=O)N[C@@H](CO)C(=O)N[C@@H](CO)C(=O)N2CCC[C@H]2C(=O)N[C@@H](Cc2c[nH]cn2)C(=O)N[C@@H](CO)C(=O)N[C@@H](Cc2ccc(O)cc2)C(N)=O)C(C)C)C(C)C)[C@@H](C)O)[C@@H](C)CC)C(C)C)[C@@H](C)O)NC(=O)[C@H]([C@@H](C)O)NC(=O)CNC(=O)[C@H](Cc2ccccc2)NC(=O)[C@H](CCCNC(=N)N)NC1=O [SEQ ID NO: 50] |  | 65 | 87
7 | CSCC[C@H](NC(=O)[C@H](CC(C)C)NC(=O)[C@H](CCC(N)=O)NC(=O)[C@H](Cc1c[nH]c2ccccc12)NC(=O)[C@H](CC(C)C)NC(=O)[C@H](Cc1c[nH]cn1)NC(=O)[C@H](C)NC(=O)[C@H](CC(C)C)NC(=O)[C@H](CCCCN)NC(=O)[C@H](CCC(N)=O)NC(=O)[C@@H](NC(=O)[C@@H](NC(=O)[C@@H]1CSSC[C@H](NC(=O)CNC(=O)[C@@H](NC(C)=O)C(C)C)C(=O)N[C@@H](CCCNC(=N)N)C(=O)N[C@@H](Cc2ccccc2)C(=O)NCC(=O)N[C@@H]([C@@H](C)O)C(=O)N1)[C@@H](C)O)C(C)C)C(=O)NCC(=O)N1CCC[C@H]1C(=O)N[C@@H](C)C(=O)NCC(=O)N[C@@H](CCCNC(=N)N)C(=O)N[C@@H](CCC(N)=O)C(=O)N[C@@H](CC(=O)O)C(=O)N[C@@H](CO)C(=O)N[C@@H](C)C(=O)N1CCC[C@H]1C(=O)N[C@H](C(=O)N[C@@H](CC(=O)O)C(=O)N1CCC[C@H]1C(=O)N[C@@H](CO)C(=O)N[C@@H](CO)C(=O)N1CCC[C@H]1C(=O)N[C@@H](Cc1c[nH]cn1)C(=O)N[C@@H](CO)C(=O)N[C@@H](Cc1ccc(O)cc1)C(N)=O)C(C)C [SEQ ID NO: 58] |  | 0 | 
